This is an account of results in patent US20150265682A1, “THERAPEUTIC METHODS AND COMPOSITIONS FOR TREATING DIABETES” (Orient Europharma Co., Ltd., priority 2014, published 2015).

The test system of test [1] is human hepatocellular carcinoma cell line, Hep3B. Briefly: Glycogen content assay in Hep3B cells. The format is cell-based. Particulars: 30 minutes. Here is the method: The C2C12 skeletal muscle cells were cultured in Dulbecco's modified Eagle's medium (DMEM; Gibco/Invitrogen, Carlsbad, Calif.), and the human hepatocellular carcinoma cell line, Hep3B, was cultured in Roswell Park Memorial Institute medium 1640 (RPMI 1640 medium; Gibco/Invitrogen, Carlsbad, Calif.). Cells were cultured at 37° C. in the humidified incubator supplied with 5% CO2. Culture mediums were supplemented with 4.5 mgmL^−1 glucose, penicillin 100 IUmL^−1, streptomycin 100 μgmL^−1 and 10% fetal bovine serum (Gibco/Invitrogen, Carlsbad, Calif.). Only C2C12 cells were then switched to 2% horse serum for 3 days after reaching the 70% confluence. Myotubes formation was achieved after 4 days of incubation, and the cells were used for subsequent experiments. Culture mediums were replaced by serum free DMEM or RPMI for 24 h before experiments (see e.g., procedure described in Sultan et al., 2006).
C2C12 and Hep3B cells were treated with 1 nM insulin, 100 μM metformin, and the assigned concentration of borapetoside A for 30 minutes. To develop the insulin resistance state of cells, C2C12 cells were incubated with IL-6 at 20 ngmL^−1 for 1 hour. Later, the cells were treated with 1 nM insulin, 100 μM metformin, and the assigned concentration of borapetoside A for 30 minutes. After the assigned treatment, cells were washed twice with phosphate buffered saline (PBS). Glycogen content was measured as previously described, with some modifications (see e.g., Savage et al., 2008). The protein concentrations of the cell lysates were determined by using Pierce BCA Protein Assay Kit (Thermo-Scientific, Rockford, Ill.). The glycogen content of each sample was normalized by total protein.

The test system of test [2] is non-diabetic and T2DM mice. Briefly: Oral glucose tolerance test (OGTT) with borapetoside C. It counts as in vivo, ICR mice. The note with it: 5 mg/kg. Here is the method: This study was conducted following the University ethical guidelines on animal experimentation and complied with the Guide for the Care and Use of Laboratory Animals published by the US National Institutes of Health (NIH publication no. 85-23, revised 1996). The animal facility was well controlled for temperature (22±1° C.), and humidity (60±5%) and a 12 h/12 h light-dark cycle was maintained with access to food and water ad libitum. Four-week-old male ICR mice were acquired from BioLasco Taiwan Co., Ltd. and maintained at College of Medicine Experimental Animal Center, National Taiwan University. The study was conducted on 8-10 week-old male ICR mice.
T1DM mice were induced by a known method. In brief, an intraperitoneal injection of streptozotocin (STZ; Sigma Chemical Co.; St. Louis, Mo.) at 150 mg/kg was performed in mice that were fasted for 48 h. The induction of T1DM was assessed and confirmed when the mice had plasma glucose levels ≧350 mg/dL, accompanied with polyuria, hyperphagia and decreased body weight. The control mice group received an injection of vehicle and then carried out for 4 weeks. T2DM mice were induced by maintaining on a fat-rich chow diet and fructose-sweetened water for 4 weeks from the age of 4-5 weeks according to previous methods. The induction T2DM mice were assessed by measuring fasting plasma glucose levels and confirmed when plasma glucose level was ≧150 mg/dL after a 4-week induction.
Blood samples were collected from the orbital vascular plexus of mice under anesthesia with sodium pentobarbital (80 mg/kg, intraperitoneal, Sigma Chemical Co., St. Louis, Mo., USA). Blood samples were then centrifuged at 13000 rpm for 5 min, and the plasma was kept on ice prior to the assay. The plasma glucose concentration was measured using commercial kits following manufacturer's instructions (BioSystems S. A., Barcelona, Spain).
To perform OGTT, mice were fasted overnight, divided into 2 groups and then administered a vehicle control and 5 mg/kg borapetoside C. This was followed by administration of a glucose solution at 2 g/kg via tube feeding. Blood samples were withdrawn from the orbital vascular plexus at intervals of 30, 60, 120, and 150 min after glucose administration. For the ITT, mice were fasted for 3 h. Human insulin (Insulin Actrapid) HM; Novo Nordisk, Denmark) was injected intraperitoneally after an intraperitoneal administration of 0.1 mg/kg borapetoside C for 30 min. Blood samples were collected from the orbital vascular plexus at the timed intervals mentioned above.

Regarding `C[C@@]12C[C@@H](c3ccoc3)OC(=O)[C@@H]1C[C@@H]1OC(=O)[C@@]3(O)[C@@H](O[C@@H]4O[C@H](CO)[C@@H](O)[C@H](O)[C@H]4O)CC[C@@H]2[C@@]13C` [Borapetoside A, borapetoside A], the “fold increase of glycogen content” value in test [1] (10^−5 mol/L) was 1.54±0.11 fold; in test [1] (10^−6 mol/L) it was 1.39±0.12 fold; in test [1] (10^−7 mol/L), 1.46±0.05 fold.

Turning to `COC(=O)C1=CCC[C@H]2[C@]3(C)C[C@@H](c4ccoc4)OC(=O)[C@@H]3C[C@@H](O[C@@H]3O[C@H](CO)[C@@H](O)[C@H](O)[C@H]3O)[C@@]12C` [Borapetoside C, borapetoside C], in test [2] (T2DM mice), the “basal plasma glucose concentration in OGTT” value stood at 206.8 ± 19.0 mg/dL; the “decrease of area under the curve (AUC) in OGTT vs vehicle-treated group” value turned out to be 16%; the “plasma glucose levels at 60, 120 and 150 min vs vehicle-treated mice” value is reported as “significantly lower”. Also, the “plasma glucose concentration sixty min after oral glucose administration” value in test [2] (T2DM mice, glucose 2 g/kg) came to 338.2 ± 24.5 mg/dL. Moreover, in test [2] (non-diabetic mice), the “basal plasma glucose concentration in OGTT” value is 115 ± 3.5 mg/dL; the “plasma glucose levels at 120 min and 150 min vs vehicle-treated mice” value is “significantly lower”. In test [2] (non-diabetic mice, glucose 2 g/kg), the “plasma glucose concentration at 60 min after oral administration of glucose” value is 312.8 ± 21.3 mg/dL. In test [2] (normal mice), the “decrease of area under the curve (AUC) in OGTT vs vehicle-treated group” value turned out to be 22%.
